Experimental data published in paper PMC2929754 (The Journal of parasitology, 2009).

Target: T. cruzi lipoamide dehydrogenase (TcLipDH) (Trypanosoma cruzi, UniProt P90597)
Assay: Recombinant enzyme kinetics
Assay type: biochemical

Sequence of T. cruzi lipoamide dehydrogenase (TcLipDH) (P90597 whole entry): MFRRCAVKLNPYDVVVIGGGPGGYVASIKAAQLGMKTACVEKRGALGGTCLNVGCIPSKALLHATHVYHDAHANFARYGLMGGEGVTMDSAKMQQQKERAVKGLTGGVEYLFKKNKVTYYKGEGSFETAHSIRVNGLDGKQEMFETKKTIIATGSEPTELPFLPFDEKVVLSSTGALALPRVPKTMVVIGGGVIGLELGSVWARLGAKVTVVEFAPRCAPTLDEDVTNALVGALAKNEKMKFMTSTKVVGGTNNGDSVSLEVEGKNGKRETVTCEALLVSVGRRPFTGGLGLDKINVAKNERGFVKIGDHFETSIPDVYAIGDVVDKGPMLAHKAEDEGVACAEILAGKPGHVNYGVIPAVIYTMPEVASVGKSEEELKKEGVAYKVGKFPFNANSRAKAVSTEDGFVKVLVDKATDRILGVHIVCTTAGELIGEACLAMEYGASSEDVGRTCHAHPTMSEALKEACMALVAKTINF

For `O=C1C(c2ccccc2)=C(c2ccccc2)C(=O)c2ccccc21` [DPNQ, 2,3-diphenyl-1,4-naphthoquinone], the Ki was 29 µM.
